Experimental findings from patent US20140309210A1, “INDAZOLE COMPOUNDS, COMPOSITIONS AND METHODS OF USE THEREOF” (Genentech, Inc., priority 2011, published 2014) are described below.

SMILES strings stand for the structures.

One assay concerns the target T1, purified ITK (Invitrogen PV3875) (Homo sapiens, UniProt Q08881).
T1 construct: purchased Invitrogen PV3875
T1 sequence (Q08881 1-620): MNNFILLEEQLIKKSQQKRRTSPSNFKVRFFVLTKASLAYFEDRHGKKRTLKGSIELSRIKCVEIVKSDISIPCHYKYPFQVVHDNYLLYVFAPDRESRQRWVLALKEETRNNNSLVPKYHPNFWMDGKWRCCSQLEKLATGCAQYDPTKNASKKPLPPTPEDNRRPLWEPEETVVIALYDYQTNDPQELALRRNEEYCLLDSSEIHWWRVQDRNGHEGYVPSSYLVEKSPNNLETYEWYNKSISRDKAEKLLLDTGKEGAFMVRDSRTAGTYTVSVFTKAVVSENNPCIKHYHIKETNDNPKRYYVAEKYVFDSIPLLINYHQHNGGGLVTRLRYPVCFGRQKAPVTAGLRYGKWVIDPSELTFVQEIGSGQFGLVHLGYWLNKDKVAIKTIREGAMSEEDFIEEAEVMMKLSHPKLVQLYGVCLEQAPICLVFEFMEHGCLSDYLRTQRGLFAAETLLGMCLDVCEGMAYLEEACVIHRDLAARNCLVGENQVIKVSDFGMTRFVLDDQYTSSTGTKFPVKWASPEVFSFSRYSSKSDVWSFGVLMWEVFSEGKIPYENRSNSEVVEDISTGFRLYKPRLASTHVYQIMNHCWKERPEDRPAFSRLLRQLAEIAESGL
Briefly: ITK peptide phosphorylation assay (Caliper LabChip or LCMS). It counts as biochemical. The note with it: Table 1, Examples 141-279. An outline of the steps: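 Purified human ITK peptide phosphorylation, quenched with EDTA (50 mM final) for Caliper LabChip separation or TCA (5% v/v final) for UPLC-MS/MS MRM quantification. Ki derived via Morrison tight-binding equation, corrected for competitive inhibition using ATP concentration relative to Km,app.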
Take `CN(CCC(c1ccccc1)n1cc(NC(=O)c2n[nH]c3ccccc23)cn1)CC(F)F` (stereo not drawn) [Example 273, N-[1-[3-[2,2-difluoroethyl(meth-yl)amino]-1-phenyl-propyl]pyrazol-4-yl]-1H-indazole-3-carboxamide]: affinity was put at a Ki of 8.3 nM.

As for `CCC(CC)Cn1cc(NC(=O)c2n[nH]c3cc(-c4cn[nH]c4)ccc23)cn1` [Example 238, N-[1-(2-ethylbutyl)pyrazol-4-yl]-6-(1H-pyrazol-4-yl)-1H-indazole-3-carboxamide], the Ki came to 2.79 nM.

`N#Cc1cccc(Cn2cc(NC(=O)c3n[nH]c4cc(-c5cccnc5)c(F)cc34)cn2)c1` [Example 153, N-[1-[(3-cyanophenyl)meth-yl]pyrazol-4-yl]-5-fluoro-6-(3-pyridyl)-1H-indazole-3-carboxamide] displayed a Ki of 57.5 nM.

With `CN(C)CCC(c1cscn1)n1cc(NC(=O)c2n[nH]c3cc(-c4cn[nH]c4)ccc23)cn1` (stereo not drawn) [Example 201, N-[1-[3-(dimethylamino)-1-thiazol-4-yl-propyl]pyrazol-4-yl]-6-(1H-pyrazol-4-yl)-1H indazole-3-carboxamide], the affinity, expressed as Ki, was 2.89 nM.

For `O=C(Nc1cnn(Cc2cnc(N3CCOCC3)nc2)c1)c1n[nH]c2cc(-c3cn[nH]c3)ccc12` [Example 227, N-[1-[(2-morpholinopy-rimidin-5-yl)methyl]pyrazol-4-yl]6-(1H-pyrazol-4-yl)-1H-indazole-3-carboxamide], affinity was put at a Ki of 2.36 nM.

`CN(C)CCC(c1cccc(Cl)c1)n1cc(NC(=O)c2n[nH]c3cc(-c4cn[nH]c4)ccc23)cn1` (stereo not drawn) [Example 247, N-[1-[1-(3-chlorophenyl)-3-(dimethylami-no)propyl]pyrazol-4-yl]-6-(1H-pyrazol-4-yl)-1H-indazole-3-carboxamide] gave a Ki of 0.127 nM.

In the case of `CC(CO)c1ccc2[nH]nc(C(=O)Nc3cnn(Cc4cccc(C#N)c4)c3)c2c1` (stereo not drawn) [Example 186, N-[1-[(3-cyanophenyl)meth-yl]pyrazol-4-yl]-5-(2-hydroxy-1-methyl-ethyl)-1H-indazole-3-carboxamide], the Ki was 22 nM.

`O=C(Nc1cnn(Cc2cccnn2)c1)c1n[nH]c2cc(-c3cn[nH]c3)ccc12` [Example 225, 6-(1H-pyrazol-4-yl)-N-[1-(pyridazin-3-ylmethyl)pyrazol-4-yl]-1H-indazole-3-carboxamide] registered a Ki of 4.85 nM.

For the molecule `CN(C)CCC(c1ccccc1)n1cc(NC(=O)c2n[nH]c3cc(-c4cn[nH]c4)cnc23)cn1` (stereo not drawn) [Example 278, N-[1-[3-(dimethylamino)-1-phenyl-propyl]pyrazol-4-yl]-6-(1H-pyrazol-4-yl)-1H-pyrazolo[4,3-b]pyridine-3-carboxamide], the Ki amounted to 1.29 nM.

Molecule `CC1(Cn2cc(NC(=O)c3n[nH]c4cc(-c5cn[nH]c5)ccc34)cn2)COC1` [Example 253, N-[1-[(3-methyloxetan-3-yl)methyl]pyrazol-4-yl]-6-(1H-pyrazol-4-yl)-1H-indazole-3-carboxamide] displayed an inhibition constant (Ki) of 36.7 nM.

For the molecule `O=C(Nc1cnn(C(CO)c2ccccc2)c1)c1n[nH]c2ccccc12` (stereo not drawn) [Example 256, N-[1-(2-hydroxy-1-phenyl-ethyl)pyrazol-4-yl]-1H-indazole-3-carboxamide], the Ki came out at 146 nM.

`CN(C)CC(c1ccccc1)n1cc(NC(=O)c2n[nH]c3ccccc23)cn1` (stereo not drawn) [Example 275, N-[1-[2-(dimethylamino)-1-phenyl-ethyl]pyrazol-4-yl]-1H-indazole-3-carboxamide] registered an inhibitory constant (Ki) of 7.83 nM.

As to `COc1cncc(-c2ccc3c(C(=O)Nc4cnn(Cc5cccnc5)c4)n[nH]c3c2)c1` [Example 215, 6-(5-methoxy-3-pyridyl)-N-[1-(3-pyridylmethyl)py-razol-4-yl]-1H-indazole-3-carboxamide], the Ki worked out at 17.2 nM.

`N#Cc1cccc(Cn2cc(NC(=O)c3n[nH]c4ccc(NC5CCOCC5)cc34)cn2)c1` [Example 194, N-[1-[(3-cyanophenyl)meth-yl]pyrazol-4-yl]-5-(tetrahydropyran-4-ylamino)-1H-indazole-3-carboxamide]: affinity was put at a Ki of 106 nM.

With `N#Cc1cccc(Cn2cc(NC(=O)c3n[nH]c4ccc(NC5CCNCC5)cc34)cn2)c1` [Example 180, N-[1-[(3-cyanophenyl)methyl]pyrazol-4-yl]-5-(4-piperidylamino)-1H-indazole-3-carboxamide], the affinity corresponds to a Ki of 2.71 nM.

`O=C(Nc1cnn(CC2CCOC2)c1)c1n[nH]c2cc(-c3cn[nH]c3)ccc12` (stereo not drawn) [Example 235, 6-(1H-pyrazol-4-yl)-N-[1-(tetrahydrofuran-3-ylmethyl)pyrazol-4-yl]-1H-indazole-3-carboxamide] had a Ki of 4.64 nM.

The assay is the same for the next values; noted with them: Table 2, Examples 1-140, class symbols.
The molecule `O=C(O)c1ccc(Cn2cc(NC(=O)c3n[nH]c4cc(-c5cn[nH]c5)ccc34)cn2)o1` [Example 35, 5-(4-{[6-(1H-Pyrazol-4-yl)-1H-indazole-3-carbonyl]-amino}-pyrazol-1-ylmethyl)-furan-2-carboxylic acid] had a Ki of 1 to 100 nM.

For `O=C(Nc1cnn(Cc2ccc(Cl)cc2Cl)c1)c1n[nH]c2ccccc12` [Example 73, N-(1-(2,4-dichlorobenzyl)-1H-pyrazol-4-yl)-1H-indazole-3-carboxamide], the Ki is more than 100 nM.

`Cn1cc(-c2ccc3c(C(=O)Nc4cnn(Cc5cccc(C#N)c5)c4)n[nH]c3c2)cn1` [Example 121, N-(1-(3-cyanobenzyl)-1H-pyrazol-4-yl)-6-(1-methyl-1H-pyrazol-4-yl)-1H-indazole-3-carboxamide]: the Ki is 1 to 100 nM.

The molecule `C#Cc1cccc(Cn2cc(NC(=O)c3n[nH]c4cc(-c5cn[nH]c5)ccc34)cn2)c1` [Example 25, N-[1-[(3-ethynylphenyl)methyl]pyrazol-4-yl]-6-(1H-pyrazol-4-yl)-1H-indazole-3-carboxamide] came in with a Ki of 1 to 100 nM.

Turning to `O=C(Nc1cnn(Cc2cscn2)c1)c1n[nH]c2cc(-c3cccnc3)ccc12` [Example 34, 6-(3-pyridyl)-N-[1-(thiazol-4-ylmethyl)pyrazol-4-yl]-1H-indazole-3-carboxamide], the inhibition constant Ki lay within 1 to 100 nM.

The molecule `N#Cc1cccc(Cn2cc(NC(=O)c3n[nH]c4ccc(-c5cc[nH]n5)cc34)cn2)c1` [Example 80, N-(1-(3-Cyanobenzyl)-1H-pyrazol-4-yl)-5-(1H-pyrazol-3-yl)-1H-indazole-3-carboxamide] had a Ki of 1 to 100 nM.

Turning to `N#Cc1cccc(Cn2cc(NC(=O)c3n[nH]c4ccc(Cl)cc34)cn2)c1` [Example 1, 5-chloro-N-(1-(3-cyanobenzyl)-1H-pyrazol-4-yl)-1H-indazole-3-carboxamide], the Ki lay in the range of 1 to 100 nM.

As for `CN(CCC#N)Cc1ccc(Cn2cc(NC(=O)c3n[nH]c4ccccc34)cn2)cc1` [Example 111, N-(1-(4-(((2-cyanoethyl)(methyl)amino)methyl)benzyl)-1H-pyrazol-4-yl)-1H-indazole-3-carboxamide], the Ki is 1 to 100 nM.

Molecule `O=C(Nc1cnn(CCCN2CCCC(O)C2)c1)c1n[nH]c2ccccc12` (stereo not drawn) [Example 74, N-(1-(3-(3-Hydroxypiperidin-1-yl)propyl)-1H-pyrazol-4-yl)-1H-indazole-3-carboxamide] showed an inhibition constant Ki of more than 100 nM.

`NC(=O)c1cccc(Cn2cc(NC(=O)c3n[nH]c4cc(-c5cn[nH]c5)ccc34)cn2)c1` [Example 29, 6-(1H-Pyrazol-4-yl)-1H-indazole-3-carboxylic acid [1-(3-carbamoyl-benzyl)-1H-pyrazol-4-yl]-amide]: the Ki lay within 0.01 to 1 nM.

Staying with this assay, now noted: Table 3, specific values for certain examples.
`N#Cc1cccc(Cn2cc(NC(=O)c3n[nH]c4ccc(Cl)cc34)cn2)c1` [Example 1, 5-chloro-N-(1-(3-cyanobenzyl)-1H-pyrazol-4-yl)-1H-indazole-3-carboxamide]: the Ki came to 37.7 nM.
